Laboratory results: PMC12458545, “Repurposing a Detrimental Antibody Epitope as Targeted Therapeutics for Sepsis and Rheumatoid Arthritis” (Research Square, 2025)
Entries after “also recorded” stand apart in the source; their conditions may differ.

Columns and labels:
[1] = system: collagen antibody-induced arthritis (CAIA); assay: CAIA arthritis severity clinical score; format: in vivo, Balb/C mice; settings: P2–1 i.p. daily Day 6 to Day 9; male and female mice; vs. saline vehicle
Method: (§1) The CAIA model was performed in Balb/C mice (8–10 weeks old) as described previously. On Day 0, mice received i.p. injection of 2 mg anti-collagen II mAb cocktail (α-II, Chondrex, Inc., Redmond, WA). On Day 3, mice received i.p. injection of 30 μg LPS (Escherichia coli O111:B4; Sigma-Aldrich) to activate inflammation and synchronize arthritis onset. Mice were randomized, and therapeutic agents (P2–1 peptide or pCTS-L-neutralizing mAb2) were administered i.p. daily from Day 6 to Day 9. Arthritis severity was scored daily using a clinical scoring system [0 – 4 per paw: 0 = normal; 1 = mild redness and swelling in a single joint type (ankle, wrist, or individual digits); 2 = moderate redness and swelling affecting two joint types; 3 = severe redness and swelling involving across all three joint types; 4 = maximal redness and swelling of the entire paw that obscured joint definition].

human PBMCs = assay: HMGB1-induced pCTS-L secretion, Western blot; format: cell-based; settings: P2–1 5 or 10 μg/ml, HMGB1 0.5 or 2.0 μg/ml, 16 h, n = 4 independent experiments
Method: Human blood was purchased from the New York Blood Center (Long Island City, NY, USA), and PBMCs were isolated by density gradient centrifugation through Ficoll (Ficoll-Paque PLUS) as previously described,[30]. PBMCs were cultured in RPMI-1640 supplemented with 10% human serum, 2 mM L-glutamine, 100 U/mL penicillin, and 100 μg/mL streptomycin (all from Invitrogen). For experiments, PBMCs were stimulated with recombinant human HMGB1 (0.5 or 2.0 μg/ml) for 16 hours, either alone or in combination with P2–1 at 5.0 or 10.0 μg/ml. Cell-free supernatants were collected for analysis of cytokines/chemokines levels by Cytokine Antibody Arrays, or pCTS-L levels by Western blotting analysis as described.
Cell-conditioned medium from human PBMC cultures was collected, and concentrated using Amicon Ultra Centrifugal Filters. Equal volumes of conditioned medium, representing equivalent numbers of cells, were resolved on sodium dodecyl sulfate (SDS)-polyacrylamide gels and transferred to polyvinylidene difluoride (PVDF) membranes. After blocking with 5% nonfat milk in Tris-buffered saline with 0.1% Tween 20 (TBST), membranes were probed with a home-made primary monoclonal antibody against pCTS-L (e.g., mAb2, 1:1000) overnight as previously described. After washing, membranes were incubated with a horseradish peroxidase-conjugated secondary antibody. Protein bands were visualized using enhanced chemiluminescence (ECL) substrate (Pierce) and detected with a chemiluminescence imaging system (e.g., Bio-Rad ChemiDoc MP). The relative levels of specific proteins were determined using the UN-SCAN-IT Gel Analysis Software Version 7.1 (Silk Scientific Inc., Orem, UT, USA) and expressed in arbitrary units (AU).

[2] = system: CAIA-induced mechanical allodynia; assay: CAIA pain sensitivity, Von Frey filaments; format: in vivo, Balb/C mice; settings: P2–1 i.p. daily Day 6 to Day 9; 50% paw withdrawal threshold, up-down method
Method: as §1
Mechanical allodynia was assessed using Von Frey filaments (Stoelting Co., Wood Dale, IL) applied to the plantar surface of the hind paws as previously described,[82]. Mice were habituated in individual transparent enclosures on an elevated wire mesh platform. […] The “up-down” method determined the 50% paw withdrawal threshold, defined as the force required to elicit a withdrawal response in 50% of applications.

Recombinant human HMGB1 = biological target: T1, Recombinant human HMGB1 (Homo sapiens, UniProt P09429); assay: SPR (OpenSPR) binding to immobilized HMGB1; settings: immobilized HMGB1, HBS-P buffer; Fig. 5A; Mean ± SEM, n = 2 independent experiments
T1 construct: made in house; host or cells: E. coli BL21 (DE3) pLysS
T1 sequence (P09429 1-215): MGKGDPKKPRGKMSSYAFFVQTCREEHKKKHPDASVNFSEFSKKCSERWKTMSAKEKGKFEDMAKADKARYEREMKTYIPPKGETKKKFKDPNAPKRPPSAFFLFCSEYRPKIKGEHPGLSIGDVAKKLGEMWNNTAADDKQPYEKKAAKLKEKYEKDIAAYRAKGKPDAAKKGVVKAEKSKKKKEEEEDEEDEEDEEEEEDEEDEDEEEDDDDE
Method: Binding kinetics between HMGB1 and P2–1 were measured using Nicoya Life Science gold nanoparticle-based OpenSPR technology (Kitchener, ON, Canada) as previously described,[84]. Recombinant human HMGB1 was immobilized onto a Carboxyl sensor chip, and P2–1 peptide was flowed over immobilized HMGB1 at various concentrations in HBS-P buffer (GE Healthcare). Response units were recorded over time, and binding affinity was estimated as the equilibrium dissociation constant KD using Trace Drawer Kinetic Data Analysis v.1.6.1 (Nicoya Life Science).

54-TKVH(Nle)KSFLAFQTKT-69 [P2–1, water-soluble derivative of TN peptide P2 with Met to Norleucine and Cys to Ser substitutions]
arthritis severity [1]: dose-dependently and significantly attenuated
HMGB1-induced pCTS-L secretion (human PBMCs): dose-dependently abrogated HMGB1-induced pCTS-L secretion; also recorded: striking and dose-dependent suppression
HMGB1-induced pCTS-L secretion (human PBMCs; listed as P2-1): inhibitory effect
pain sensitivity (paw mechanical withdrawal threshold) [2]: significantly reduced CAIA-induced pain sensitivity by partially restoring paw mechanical withdrawal thresholds
Kd (Recombinant human HMGB1): 24.1 ± 9.35 nM
